Experimental data taken from ChEMBL document CHEMBL1133954, “The discovery of novel, potent and selective PDE5 inhibitors” (Bioorg Med Chem Lett, 2001).

Legend:
[1] = molecular target: cGMP-specific 3',5'-cyclic phosphodiesterase (Homo sapiens, UniProt O76074); test: Inhibition of PDE5 from human platelets
[2] = Relative inhibition of PDE4 from rat kidney and PDE5 from human platelets
[3] = Relative inhibition of PDE1 from bovine heart and PDE5 from human platelets
[4] = Relative inhibition of PDE6 from bovine retina and PDE5 from human platelets
[5] = Relative inhibition of PDE2 from rat kidney and PDE5 from human platelets

CCCOc1ccc(S(=O)(=O)N2CC[C@@H](N(C)C)C2)cc1-c1nc2c(c(NCc3ccc(F)cc3)nc3n[nH]cc32)c(=O)[nH]1
IC50 [1]: 0.31 nM

CCCOc1ccc(S(=O)(=O)N2CC[C@@H](N(C)C)C2)cc1-c1nc2c(c(NCc3ccc(F)cc3)nc3nn(Cc4ccc(OC)cc4)cc32)c(=O)[nH]1
IC50 [1]: 1.7 nM

CCCOc1ccc(S(=O)(=O)N2CC[C@@H](N(C)C)C2)cc1-c1nc(O)c2c(Cl)nc3nn(Cc4ccc(OC)cc4)cc3c2n1
Ratio [2]: 310 | Ratio [3]: 130 | Ratio [4]: 17 | Ratio [5]: 1200

CCCOc1ccc(S(=O)(=O)N2CC[C@@H](N(C)C)C2)cc1-c1nc2c(cnc3n[nH]cc32)c(=O)[nH]1
IC50 [1]: 2.1 nM

CCCOc1ccc(S(=O)(=O)N2CC[C@@H](N(C)C)C2)cc1-c1nc(O)c2c(NCc3ccc(OC)c(Cl)c3)[nH]c3nncc-3c2n1
Ratio [4]: 180 | Ratio [5]: > 10000

CCCOc1ccc(S(=O)(=O)N2CC[C@@H](N(C)C)C2)cc1-c1nc(O)c2c(NCc3ccc(F)cc3)[nH]c3nncc-3c2n1
Ratio [2]: > 100000 | Ratio [4]: 160

CCCOc1ccc(S(=O)(=O)N2CC[C@@H](N(C)C)C2)cc1-c1nc(O)c2c[nH]c3nncc-3c2n1
Ratio [2]: 3200 | Ratio [3]: 400 | Ratio [4]: 22 | Ratio [5]: 2000

CCCOc1ccc(S(=O)(=O)N2CC[C@@H](N(C)C)C2)cc1-c1nc(O)c2c(NCc3ccc(F)cc3)nc3nn(Cc4ccc(OC)cc4)cc3c2n1
Ratio [2]: 2500 | Ratio [4]: 15 | Ratio [5]: > 10000

CCCOc1ccc(S(=O)(=O)N2CC[C@@H](N(C)C)C2)cc1-c1nc2c(c(Cl)nc3nn(Cc4ccc(OC)cc4)cc32)c(=O)[nH]1
IC50 [1]: 13 nM
